Here are results for 53 compounds from the C3SDB collision cross section collection.

The conditions of this data set: instrument: DT, single field, calibrated with Agilent tune mix (Agilent).

Values joined by “and” are separate entries in the source; they are usually repeats but may differ in a detail not shown here. Equal values may be shown once.

In the case of `Cn1c(=O)ccn([C@@H]2O[C@H](CO)[C@@H](O)[C@H]2O)c1=O` [3-Methyluridine], the “collision cross section (N2)” value ([M+Na]+) came to 164.2 Å² and the “collision cross section (N2)” value ([M-H]-) was 166.84 Å². Turning to `Cn1c(=O)[nH]c(=O)c2[nH]cnc21` [3-Methylxanthine], the “collision cross section (N2)” value ([M-H]-) is 124.48 Å². For the compound `Nc1ccc(C(=O)[O-])cc1` [4-Aminobenzoate], where the note is “[M+H]+”, the “collision cross section (N2)” value worked out at 140.4 Å². With `COc1ccc(/C=C/C(=O)O)cc1` [4-Methoxycinnamic acid], the “collision cross section (N2)” value runs as follows: ([M+H]+) 140.8 Å²; ([M-H]-) 146.28 Å².

As for `NC(=O)c1ncn([C@@H]2O[C@H](COP(=O)(O)O)[C@@H](O)[C@H]2O)c1N` [5'-Phosphoribosyl-5-amino-4-imidazolecarboxamide], the “collision cross section (N2)” value ([M+H]+) is 171.6 Å² and the “collision cross section (N2)” value ([M-H]-) was determined as 167.62 Å².

With `CC(O)CCCC(=O)O` (stereo not drawn) [5-Hydroxyhexanoic acid], the “collision cross section (N2)” value ([M-H]-) came to 125.8 Å².

Turning to `NC(Cc1c[nH]c2ccc(O)cc12)C(=O)O` (stereo not drawn) [5-Hydroxytryptophan], the “collision cross section (N2)” value is 152.2 Å² ([M+Na]+) and 149.2 Å² ([M-H]-). Consider `COc1ccc2[nH]cc(CCN)c2c1` [5-Methoxytryptamine], for which, for the setting “[M-H]-”, the “collision cross section (N2)” value was found to be 141.18 Å². As for `O=P(O)(O)OC[C@H]1O[C@H](OP(=O)(O)OP(=O)(O)O)[C@H](O)[C@@H]1O` [5-Phospho-alpha-D-ribose 1-diphosphate], the “collision cross section (N2)” value ([M+Na-2H]-) is reported as 161.1 Å². On to `C[C@]12CCC(=O)C[C@@H]1CC[C@@H]1[C@@H]2CC[C@]2(C)C(=O)CC[C@@H]12` [5alpha-Androstane-3,17-dione], for which the “collision cross section (N2)” value runs as follows: ([M+H]+) 180.6 Å²; ([M-H]-) 174.32 Å².

As to `Nc1nc(=O)c2c([nH]1)NCC(CNc1ccc(C(=O)N[C@@H](CCC(=O)O)C(=O)O)cc1)=N2` [7,8-Dihydrofolate], the “collision cross section (N2)” value turned out to be 193.6 Å² ([M+H]+) and 196.42 Å² ([M-H]-). Consider `Cn1c[n+]([C@@H]2O[C@H](CO)[C@@H](O)[C@H]2O)c2[nH]c(N)nc(=O)c21` [7-Methylguanosine], for which the “collision cross section (N2)” value ([M]+) stood at 166.5 Å². As to `Cn1cnc2[nH]c(=O)[nH]c(=O)c21` [7-Methylxanthine], the “collision cross section (N2)” value by setting is: ([M+H]+) 130.8 Å²; ([M-H]-) 128.75 Å². On to `O=C(O)CCCCCCCCCCCCCCCO` [16-Hydroxypalmitic acid], for which the “collision cross section (N2)” value runs as follows: ([M+Na]+) 178.2 Å²; ([M-H]-) 168.99 Å². Consider `CC(=O)[C@@]1(O)CC[C@H]2[C@@H]3CCC4=CC(=O)CC[C@]4(C)[C@H]3CC[C@@]21C` [17alpha-Hydroxyprogesterone], for which the “collision cross section (N2)” value by setting is: ([M+H]+) 183.4 Å²; ([M-H]-) 183.75 Å².

`O=C(O)CC[C@H](O)C(=O)O` [(S)-2-Hydroxyglutarate]: the “collision cross section (N2)” value ([M-H]-) is 118.99 Å² and 119.14 Å². On to `Nc1ncnc2c1ncn2[C@@H]1O[C@H](COP(=O)(O)OP(=O)(O)O[C@H]2O[C@H](CO)[C@@H](O)[C@H](O)[C@H]2O)[C@@H](O)[C@H]1O` [ADP-glucose], for which the “collision cross section (N2)” value ([M+H]+) is 214.5 Å².

For `Nc1ncnc2c1ncn2[C@@H]1O[C@H](COP(=O)(O)O)[C@@H](OP(=O)(O)O)[C@H]1O` [Adenosine 3',5'-diphosphate], the “collision cross section (N2)” value came out at 182.5 Å² ([M+H]+) and 179.49 Å² ([M-H2O-H]-). `Nc1ncnc2c1ncn2[C@@H]1O[C@H](CO)[C@@H](OP(=O)(O)O)[C@H]1O` [Adenosine 3'-monophosphate]: under “[M-H]-”, the “collision cross section (N2)” value is 171.18 Å². For `O=C(O)CC(Nc1ncnc2c1ncn2[C@@H]1O[C@H](COP(=O)(O)O)[C@@H](O)[C@H]1O)C(=O)O` (stereo partly drawn) [Adenylsuccinic acid], the “collision cross section (N2)” value is given as 195.6 Å² ([M+Na]+) and 183.19 Å² ([M-H]-). For the compound `CC1=C(/C=C/C(C)=C/C=C/C(C)=C/C(=O)O)C(C)(C)CCC1` [All-trans-retinoic acid], the “collision cross section (N2)” value ([M-H]-) is reported as 203.42 Å². `NC(=O)NC(NC(N)=O)C(=O)O` [Allantoic acid]: where the note is “[M+Na]+”, the “collision cross section (N2)” value is given as 143 Å². As for `NC(CSCC[C@H](N)C(=O)O)C(=O)O` (stereo partly drawn) [Allocystathionine], where the note is “[M+H]+”, the “collision cross section (N2)” value was found to be 146.7 Å². Take `NC(=O)CC[C@H](NC(=O)Cc1ccccc1)C(=O)O` [Alpha-N-Phenylacetyl-L-glutamine]: the “collision cross section (N2)” value reads like this: ([M+H]+) 158.7 Å²; ([M-H]-) 162.82 Å². Turning to `Nc1ccc(C(=O)NCC(=O)O)cc1` [Aminohippuric acid], the “collision cross section (N2)” value reads like this: ([M+Na]+) 153.7 Å²; ([M-H]-) 147.55 Å².

For the compound `OC[C@H]1O[C@@H](Oc2ccc(O)cc2)[C@H](O)[C@@H](O)[C@@H]1O` [Arbutin], the “collision cross section (N2)” value by setting is: ([M+Na-2H]-) 159.52 Å²; ([M+Na]+) 166.6 Å². For `NC(=NCCC[C@H](N)C(=O)O)N[C@@H](CC(=O)O)C(=O)O` [Argininosuccinic acid], the “collision cross section (N2)” value was found to be 163.9 Å² ([M+H]+) and 159.57 Å² ([M+Na-2H]-). With `CCCCCCCCCCCCCCCCCC(=O)OC[C@H](O)[C@H]1OC(=O)C(O)=C1O` [Ascorbyl stearate], the “collision cross section (N2)” value ([M-H]-) turned out to be 207.62 Å². Regarding `O=C(O)CCCCCCCC(=O)O` [Azelaic acid], the “collision cross section (N2)” value ([M-H]-) is listed as 137.38 Å². `N[C@@H](CCCCNC(=O)CCCC[C@@H]1SC[C@@H]2NC(=O)N[C@@H]21)C(=O)O` [Biocytin]: the “collision cross section (N2)” value is listed as 186.8 Å² ([M+H]+) and 189.78 Å² ([M+Na-2H]-). Regarding `C[C@@H](O)[C@@H](O)c1cnc2[nH]c(N)nc(=O)c2n1` [Biopterin], the “collision cross section (N2)” value ([M+H]+) came out at 153.5 Å² and the “collision cross section (N2)” value ([M-H]-) stood at 148.31 Å². For the compound `CCCCCC(=O)O` [Caproic acid], the “collision cross section (N2)” value ([M-H]-) was found to be 128.54 Å². On to `CCCCCCCC(=O)O` [Caprylic acid], for which the “collision cross section (N2)” value ([M-H]-) came out at 139.46 Å². For `C[C@H](CCC(=O)O)[C@H]1CC[C@H]2[C@@H]3[C@H](O)C[C@@H]4C[C@H](O)CC[C@]4(C)[C@H]3CC[C@]12C` [Chenodeoxycholate], the “collision cross section (N2)” value ([M-H]-) came out at 201.51 Å². As for `NCCP(=O)(O)O` [Ciliatine], the “collision cross section (N2)” value is, setting by setting: ([M+H]+) 128.7 Å²; ([M-H]-) 118.25 Å². As to `O=C(O)CC(O)(CC(=O)O)C(=O)O` [Citrate], the “collision cross section (N2)” value ([M+Na]+) came out at 142.4 Å². `COc1cc(/C=C/CO)ccc1O` [Coniferol]: the “collision cross section (N2)” value reads like this: ([M+H-H2O]+) 128.6 Å²; ([M-H]-) 138.18 Å². As for `Nc1ccn(C2O[C@H](CO)[C@H]3OP(=O)(O)O[C@@H]23)c(=O)n1` (stereo partly drawn) [Cytidine 2',3'-cyclic phosphate], the “collision cross section (N2)” value by setting is: ([M+H]+) 162.3 Å²; ([M+Na-2H]-) 161.98 Å².

On to `CC(=O)N[C@H]1[C@H]([C@H](O)[C@H](O)CO)O[C@](OP(=O)(O)OC[C@H]2O[C@@H](n3ccc(N)nc3=O)[C@H](O)[C@@H]2O)(C(=O)O)C[C@@H]1O` [Cytidine monophosphate N-acetylneuraminic acid], for which the “collision cross section (N2)” value by setting is: ([M+Na]+) 220.7 Å²; ([M-H]-) 215.5 Å². Turning to `OC[C@H]1OC(O)[C@H](O)[C@@H](O)[C@H]1O` (stereo partly drawn) [D-(+)-Galactose], the “collision cross section (N2)” value ([M+Na]+) is 142.1 Å². Turning to `O=C(O)[C@@H](O)[C@@H](O)[C@H](O)[C@@H](O)C(=O)O` [D-Glucarate], the “collision cross section (N2)” value ([M-H]-) was 130.5 Å² and 130.92 Å².

For `Nc1nc(=O)c2nc([C@H](O)[C@H](O)CO)cnc2[nH]1` [D-Neopterin], the “collision cross section (N2)” value is on record as 157.1 Å² ([M+H]+) and 150.31 Å² ([M-H]-). As for `NCCC[C@@H](N)C(=O)O` [D-Ornithine], the “collision cross section (N2)” value ([M-H]-) is on record as 126.74 Å². Turning to `O=C(CO)[C@H](O)[C@H](O)COP(=O)(O)O` [D-Ribulose 5-phosphate], the “collision cross section (N2)” value ([M+Na]+) is given as 148.8 Å².

As for `OCC1(O)OC[C@@H](O)[C@H](O)[C@@H]1O` (stereo partly drawn) [D-Tagatose], the “collision cross section (N2)” value is, setting by setting: ([M+Na]+) 139 Å²; ([M-H]-) 129.77 Å². Consider `N[C@H]1C(O)O[C@H](COP(=O)(O)O)[C@@H](O)[C@@H]1O` (stereo partly drawn) [D-glucosamine 6-phosphate], for which the “collision cross section (N2)” value ([M+Na]+) was determined as 156.6 Å². As to `C[C@H](CCC(=O)O)[C@H]1CC[C@H]2[C@@H]3CC[C@@H]4C[C@H](O)CC[C@]4(C)[C@H]3C[C@H](O)[C@]12C` [Deoxycholic acid], the “collision cross section (N2)” value ([M-H]-) was found to be 200.7 Å². Consider `Nc1ccn([C@H]2C[C@H](O)[C@@H](COP(=O)(O)OP(=O)(O)OP(=O)(O)O)O2)c(=O)n1` [Deoxycytidine 5'-triphosphate], for which the “collision cross section (N2)” value ([M-H]-) was 176.92 Å². For `Nc1nc(=O)c2ncn([C@H]3C[C@H](O)[C@@H](COP(=O)(O)OP(=O)(O)OP(=O)(O)O)O3)c2[nH]1` [Deoxyguanosine triphosphate], under “[M-H]-”, the “collision cross section (N2)” value is on record as 189.26 Å². In the case of `Cc1cn([C@H]2C[C@H](O)[C@@H](COP(=O)(O)O)O2)c(=O)[nH]c1=O` [Deoxythymidine 5'-phosphate], where the note is “[M+Na]+”, the “collision cross section (N2)” value came out at 173.1 Å². Take `CC(C)=CCC[C@@H](C)[C@H]1CC[C@H]2[C@@H]3CC=C4C[C@@H](O)CC[C@]4(C)[C@H]3CC[C@]12C` [Desmosterol]: the “collision cross section (N2)” value was 199.4 Å² ([M+H-H2O]+) and 210.05 Å² ([M-H]-). In the case of `Cc1cc2nc[nH]c2cc1C` [Dimethylbenzimidazole], the “collision cross section (N2)” value is reported as 129.9 Å² ([M+H]+) and 127.73 Å² ([M-H]-).

Regarding `CCCCCCCC/C=C\CCCCCCCCCCCC(=O)O` [Erucic acid], the “collision cross section (N2)” value ([M-H]-) was 188.5 Å².
